Test results published in US7425640B2, “Substituted 5-carboxyamide pyrazoles and [1,2,4]triazoles as antiviral agents” (priority 2004, dated 2008).
Like-named read-outs stand apart in the source and are kept apart here.

Molecular target: HCV RNA-dependent RNA polymerase NS5B (Δ21) (Hepatitis C virus genotype 1b, UniProt P26663)
Assay: Assay for HCV RNA-dependent RNA polymerase activity (SPA, [3H]-GTP incorporation)
Type: biochemical
Conditions: 50 nM NS5B (Δ21)
Method in brief: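 NS5B (Δ21), 50 nM, was incubated 3 h at room temperature with biotinylated oligoG12/polyC template, 5 μM GTP plus [3H]-GTP, in HEPES pH 7.3 with MgCl2 and NaCl. [3H]-GTP incorporation was read by streptavidin SPA. IC50 came from single experiments across 11 two-fold dilutions (0.05–50 μM).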

[1] = Δ21 Activity (IC50 μM), class symbols
[2] = read-out: Δ21 Activity (IC50 μM), class symbols
[3] = Δ21 Activity (IC50 μM), numeric values

Sequence of HCV RNA-dependent RNA polymerase NS5B (Δ21) (P26663 2420-2989, stated change not applied): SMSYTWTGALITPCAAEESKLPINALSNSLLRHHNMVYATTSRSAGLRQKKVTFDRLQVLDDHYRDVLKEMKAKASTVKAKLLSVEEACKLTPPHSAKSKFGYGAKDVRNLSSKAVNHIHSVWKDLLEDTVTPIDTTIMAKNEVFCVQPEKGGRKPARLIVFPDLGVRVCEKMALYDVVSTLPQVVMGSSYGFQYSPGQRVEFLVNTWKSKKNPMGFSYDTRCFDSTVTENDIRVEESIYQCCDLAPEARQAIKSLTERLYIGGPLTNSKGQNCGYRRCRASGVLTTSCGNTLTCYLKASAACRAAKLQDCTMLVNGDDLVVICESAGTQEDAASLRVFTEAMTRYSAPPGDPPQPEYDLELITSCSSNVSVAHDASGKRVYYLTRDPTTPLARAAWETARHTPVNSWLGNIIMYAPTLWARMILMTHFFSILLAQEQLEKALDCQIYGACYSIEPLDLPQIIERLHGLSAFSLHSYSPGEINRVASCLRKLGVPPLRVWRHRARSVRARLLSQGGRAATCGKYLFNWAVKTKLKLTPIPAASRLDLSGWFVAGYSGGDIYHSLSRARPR

SMILES | IC50 [1] | IC50 [2] | further results
O=C(Cn1nc(C(=O)NCCO)cc1C(=O)N[C@H]1CCCC[C@@H]1OCc1ccccc1)N[C@H]1CCCC[C@@H]1OCc1ccccc1 [Compound 191] | > 1 µM |  | 
O=C(Cn1nc(C(=O)NC2CCN(Cc3ccccc3)CC2)cc1C(=O)N[C@H]1CCCC[C@@H]1OCc1ccccc1)N[C@H]1CCCC[C@@H]1OCc1ccccc1 [Compound 192] | > 1 µM |  | 
O=C(Cn1nc(CO)cc1C(=O)N[C@H]1CCCC[C@@H]1OCc1ccccc1)N[C@H]1CCCC[C@@H]1OCc1ccccc1 [Compound 161] |  | 0.1 to 1 µM | 
O=C(Cn1nc(C(=O)NCc2cccc3ccccc23)cc1C(=O)N[C@H]1CCCC[C@@H]1OCc1ccccc1)N[C@H]1CCCC[C@@H]1OCc1ccccc1 [Compound 22] | 0.05 to 0.1 µM |  | 
O=C(Cn1nccc1C(=O)N[C@H]1CCCC[C@@H]1OCc1ccccc1)N[C@H]1CCCC[C@@H]1OCc1ccccc1 [Compound 134] |  | 0.1 to 1 µM | 
Cc1ccc(OCc2ccsc2)c(NC(=O)c2cc(C(=O)O)nn2CC(=O)N[C@H]2CCCC[C@@H]2OCc2ccccc2)c1 [Compound 8] | < 0.05 µM |  | 
O=C(Cn1nc(C(=O)O)cc1C(=O)Nc1cc(Cl)ccc1OCC1CCCCC1)N[C@H]1CCCC[C@@H]1OCc1ccccc1 [Compound 3] | < 0.05 µM |  | 
Cc1ccc(OCC2CCCCC2)c(NC(=O)c2cc(C(=O)O)nn2CC(=O)N[C@H]2CCCC[C@@H]2OCc2ccccc2)c1 [drawing 244] |  |  | IC50 [3]: 0.033 µM
O=C(O)CNC(=O)c1cc(C(=O)N[C@H]2CCCC[C@@H]2OCc2ccccc2)n(CC(=O)N[C@H]2CCCC[C@@H]2OCc2ccccc2)n1 [Compound 153] |  | 0.1 to 1 µM | 
COc1cccc(NC(=O)c2cc(C(=O)N[C@H]3CCCC[C@@H]3OCc3ccccc3)n(CC(=O)N[C@H]3CCCC[C@@H]3OCc3ccccc3)n2)c1 [drawing 255] |  |  | IC50 [3]: 0.045 µM
COC(=O)CCCCCNC(=O)CCCCCNC(=O)c1cc(C(=O)N[C@H]2CCCC[C@@H]2OCc2ccccc2)n(CC(=O)N[C@H]2CCCC[C@@H]2OCc2ccccc2)n1 [Compound 184] | > 1 µM |  | 
O=C(Cn1nc(NS(=O)(=O)c2ccc([N+](=O)[O-])cc2)cc1C(=O)N[C@H]1CCCC[C@@H]1OCc1ccccc1)N[C@H]1CCCC[C@@H]1OCc1ccccc1 [Compound 85] |  | 0.1 to 1 µM | 
O=C(Cn1nc(NS(=O)(=O)c2cccc(Br)c2)cc1C(=O)N[C@H]1CCCC[C@@H]1OCc1ccccc1)N[C@H]1CCCC[C@@H]1OCc1ccccc1 [Compound 36] | 0.05 to 0.1 µM |  | 
O=C(Cn1nc(NS(=O)(=O)c2ccc(F)cc2F)cc1C(=O)N[C@H]1CCCC[C@@H]1OCc1ccccc1)N[C@H]1CCCC[C@@H]1OCc1ccccc1 [Compound 79] |  | 0.1 to 1 µM | 
COc1ccc(CNC(=O)c2cc(C(=O)N[C@H]3CCCC[C@@H]3OCc3ccccc3)n(CC(=O)N[C@H]3CCCC[C@@H]3OCc3ccccc3)n2)cc1 [Compound 40] | 0.05 to 0.1 µM |  | 
N#CNC(=O)c1cc(C(=O)N[C@H]2CCCC[C@@H]2OCc2ccccc2)n(CC(=O)N[C@H]2CCCC[C@@H]2OCc2ccccc2)n1 [Compound 15] | < 0.05 µM |  | 
O=C(Cn1nc(NC(=O)Nc2ccccc2)cc1C(=O)N[C@H]1CCCC[C@@H]1OCc1ccccc1)N[C@H]1CCCC[C@@H]1OCc1ccccc1 [Compound 102] |  | 0.1 to 1 µM | 
COc1ccc(NC(=O)c2cc(C(=O)Nc3ccccc3OCc3ccccc3)n(CC(=O)N[C@H]3CCCC[C@@H]3OCc3ccccc3)n2)cc1 [Compound 29] | 0.05 to 0.1 µM |  | 
CNC(=O)Nc1cc(C(=O)N[C@H]2CCCC[C@@H]2OCc2ccccc2)n(CC(=O)N[C@H]2CCCC[C@@H]2OCc2ccccc2)n1 [Compound 135] |  | 0.1 to 1 µM | 
CCOC(=O)c1cc(C(=O)N[C@H]2CCCC[C@@H]2OCc2ccccc2)n(CC(=O)N(C)[C@H]2CCCC[C@@H]2OCc2ccccc2)n1 [Compound 178] | > 1 µM |  | 
C[C@@H](NC(=O)c1cc(C(=O)N[C@H]2CCCC[C@@H]2OCc2ccccc2)n(CC(=O)N[C@H]2CCCC[C@@H]2OCc2ccccc2)n1)c1cccc2ccccc12 [Compound 7] | < 0.05 µM |  | 
CCCCOCCCNC(=O)c1cc(C(=O)N[C@H]2CCCC[C@@H]2OCc2ccccc2)n(CC(=O)N[C@H]2CCCC[C@@H]2OCc2ccccc2)n1 [Compound 93] |  | 0.1 to 1 µM | 
O=C(Cn1nc(C(=O)N2CCN(c3ccccc3)CC2)cc1C(=O)N[C@H]1CCCC[C@@H]1OCc1ccccc1)N[C@H]1CCCC[C@@H]1OCc1ccccc1 [Compound 140] |  | 0.1 to 1 µM | 
CNC(=O)c1cc(C(=O)N[C@H]2CCCC[C@@H]2OCc2ccccc2)n(CC(=O)N[C@H]2CCCC[C@@H]2OCc2ccccc2)n1 [Compound 145] |  | 0.1 to 1 µM | 
C=CCNC(=O)c1cc(C(=O)N[C@H]2CCCC[C@@H]2OCc2ccccc2)n(CC(=O)N[C@H]2CCCC[C@@H]2OCc2ccccc2)n1 [Compound 111] |  | 0.1 to 1 µM | 
O=C(Cn1nc(C(=O)O)nc1C(=O)Nc1ccccc1OCC1CCCCC1)N[C@H]1CCCC[C@@H]1OCc1ccccc1 [Compound 59] |  | 0.1 to 1 µM | 
O=C(Cn1nc(NS(=O)(=O)c2ccccc2Br)cc1C(=O)N[C@H]1CCCC[C@@H]1OCc1ccccc1)N[C@H]1CCCC[C@@H]1OCc1ccccc1 [Compound 32] | 0.05 to 0.1 µM |  | 

SMILES | IC50 [1] | IC50 [2] | further results
COC(CNC(=O)c1cc(C(=O)N[C@H]2CCCC[C@@H]2OCc2ccccc2)n(CC(=O)N[C@H]2CCCC[C@@H]2OCc2ccccc2)n1)OC [Compound 146] |  | 0.1 to 1 µM | 
CC(C)(C)OC(=O)c1cc(C(=O)N[C@H]2CCCC[C@@H]2OCc2ccccc2)n(CC(=O)N[C@H]2CCCC[C@@H]2OCc2ccccc2)n1 [Compound 65] |  | 0.1 to 1 µM | 
CCOC(=O)c1cc(C(=O)N[C@@H]2CCCC[C@@H]2OCc2ccccc2)n(CC(=O)N[C@H]2CCCC[C@H]2OCc2ccccc2)n1 [Compound 139] |  | 0.1 to 1 µM | 
O=C(Cn1nc(C(=O)Nc2nnn[nH]2)nc1C(=O)N[C@H]1CCCC[C@@H]1OCc1ccccc1)N[C@H]1CCCC[C@@H]1OCc1ccccc1 [Compound 115] |  | 0.1 to 1 µM | 
O=C(Cn1nc(C(=O)O)cc1C(=O)Nc1cc(C(F)(F)F)ccc1OCc1ccccc1)N[C@H]1CCCC[C@@H]1OCc1ccccc1 [Compound 14] | < 0.05 µM |  | 
O=C(Cn1nc(C(=O)N(c2ccccc2)c2ccccc2)cc1C(=O)N[C@H]1CCCC[C@@H]1OCc1ccccc1)N[C@H]1CCCC[C@@H]1OCc1ccccc1 [Compound 159] |  | 0.1 to 1 µM | 
Cc1ccc(OCc2ccccc2)c(NC(=O)c2cc(NS(=O)(=O)c3ccc(Cl)cc3)nn2CC(=O)N[C@H]2CCCC[C@@H]2OCc2ccccc2)c1 [Compound 44] | 0.05 to 0.1 µM |  | 
O=C(Cn1nc(NS(=O)(=O)c2cc(Cl)cc(Cl)c2O)cc1C(=O)N[C@H]1CCCC[C@@H]1OCc1ccccc1)N[C@H]1CCCC[C@@H]1OCc1ccccc1 [Compound 108] |  | 0.1 to 1 µM | 
Cc1ccc(OCC2CCCC2)c(NC(=O)Cn2nc(C(=O)O)cc2C(=O)N[C@H]2CCCC[C@@H]2OCc2ccccc2)c1 [Compound 34] | 0.05 to 0.1 µM |  | 
Nc1cc(C(=O)N[C@H]2CCCC[C@@H]2OCc2ccccc2)n(CC(=O)NC2CCCC[C@@H]2OCc2ccccc2)n1 (stereo partly drawn) [Compound 205] | > 1 µM |  | 
Cc1cc(Oc2ccccc2NC(=O)Cn2nc(C(=O)O)cc2C(=O)N[C@H]2CCCC[C@@H]2OCc2ccccc2)ccc1Cl [Compound 23] | 0.05 to 0.1 µM |  | 
N#Cc1ccc(NNC(=O)c2cc(C(=O)N[C@H]3CCCC[C@@H]3OCc3ccccc3)n(CC(=O)N[C@H]3CCCC[C@@H]3OCc3ccccc3)n2)cc1 [Compound 154] |  | 0.1 to 1 µM | 
O=C(O)CCCCCNC(=O)CCCCCNC(=O)c1cc(C(=O)N[C@H]2CCCC[C@@H]2OCc2ccccc2)n(CC(=O)N[C@H]2CCCC[C@@H]2OCc2ccccc2)n1 [Compound 165] |  | 0.1 to 1 µM | 
CS(=O)(=O)NC(=O)c1cc(C(=O)N[C@H]2CCCC[C@@H]2OCc2ccccc2)n(CC(=O)N[C@H]2CCCC[C@@H]2OCc2ccccc2)n1 [Compound 155] |  | 0.1 to 1 µM | 
O=C(Cn1nc(C(=O)NC2CCCCC2)cc1C(=O)N[C@H]1CCCC[C@@H]1OCc1ccccc1)N[C@H]1CCCC[C@@H]1OCc1ccccc1 [Compound 83] |  | 0.1 to 1 µM | 
O=C(Cn1nc(NS(=O)(=O)c2ccccc2F)cc1C(=O)N[C@H]1CCCC[C@@H]1OCc1ccccc1)N[C@H]1CCCC[C@@H]1OCc1ccccc1 [Compound 37] | 0.05 to 0.1 µM |  | 
O=C(Cn1nc(C(=O)NCc2cccs2)cc1C(=O)N[C@H]1CCCC[C@@H]1OCc1ccccc1)N[C@H]1CCCC[C@@H]1OCc1ccccc1 [Compound 92] |  | 0.1 to 1 µM | 
Cc1ccc(OCc2ccsc2)c(NC(=O)c2cc(C(=O)O)nn2CC(=O)N[C@H]2CCCC[C@@H]2OCc2ccccc2)c1 [drawing 247] |  |  | IC50 [3]: 0.032 µM
O=C(Cn1nc(C(=O)NCc2ccc(Cl)cc2)cc1C(=O)N[C@H]1CCCC[C@@H]1OCc1ccccc1)N[C@H]1CCCC[C@@H]1OCc1ccccc1 [Compound 46] | 0.05 to 0.1 µM |  | 
O=C(Cn1nc(C(=O)N2CCc3ccccc3C2)cc1C(=O)N[C@H]1CCCC[C@@H]1OCc1ccccc1)N[C@H]1CCCC[C@@H]1OCc1ccccc1 [Compound 51] |  | 0.1 to 1 µM | 
O=C(Cn1nc(C(=O)O)cc1C(=O)Nc1cc(Br)ccc1OCC1CCCCC1)N[C@H]1CCCC[C@@H]1OCc1ccccc1 [Compound 12] | < 0.05 µM |  | 
Cc1ccc(OCc2ccccc2)c(NC(=O)c2nc(C(=O)O)nn2CC(=O)N[C@H]2CCCC[C@@H]2OCc2ccccc2)c1 [Compound 24] | 0.05 to 0.1 µM |  | 
O=C(Cn1nc(C(=O)NCCCn2ccnc2)cc1C(=O)N[C@H]1CCCC[C@@H]1OCc1ccccc1)N[C@H]1CCCC[C@@H]1OCc1ccccc1 [Compound 188] | > 1 µM |  | 
O=C(O)c1cc(C(=O)N[C@H]2CCCC[C@@H]2OCc2ccccc2)n(CC(=O)N2CCC[C@@H]2COCc2ccccc2)n1 [Compound 198] | > 1 µM |  | 
O=C(Cn1nc(C(=O)O)cc1C(=O)Nc1ccc(F)cc1OCC1CCCCC1)N[C@H]1CCCC[C@@H]1OCc1ccccc1 [drawing 249] |  |  | IC50 [3]: 0.035 µM
O=C(Cn1nc(NS(=O)(=O)c2ccc(Br)c(C(=O)O)c2)cc1C(=O)N[C@H]1CCCC[C@@H]1OCc1ccccc1)N[C@H]1CCCC[C@@H]1OCc1ccccc1 [Compound 17] | < 0.05 µM |  | 
O=C(Cn1nc(NS(=O)(=O)c2ccc(F)cc2)cc1C(=O)N[C@H]1CCCC[C@@H]1OCc1ccccc1)N[C@H]1CCCC[C@@H]1OCc1ccccc1 [Compound 35] | 0.05 to 0.1 µM |  | 
